This is an account of results in the Kinase Knowledgebase extract (Sharma et al. 2016).

The structures appear in SMILES notation. Values after ≈ are worked out from the molar mass of the structure shown.

Test [1] deals with EGFR (human) (UniProt P00533). The following applies: a431.
The target of test [2] is EGFR (human) (UniProt P00533). Conditions: mda-mb-435.
For test [3], the target named is EGFR (human) (UniProt P00533). The following applies: sw 620.
The target of test [4] is EGFR (human) (UniProt P00533). Conditions: sk-br-3.
For test [5], the target named is EGFR (human) (UniProt P00533). Conditions: for IC50: ht-29; for inhibition: ht-29, concentration not given here.

EGFR (human), sequence (P00533 whole entry, looked up): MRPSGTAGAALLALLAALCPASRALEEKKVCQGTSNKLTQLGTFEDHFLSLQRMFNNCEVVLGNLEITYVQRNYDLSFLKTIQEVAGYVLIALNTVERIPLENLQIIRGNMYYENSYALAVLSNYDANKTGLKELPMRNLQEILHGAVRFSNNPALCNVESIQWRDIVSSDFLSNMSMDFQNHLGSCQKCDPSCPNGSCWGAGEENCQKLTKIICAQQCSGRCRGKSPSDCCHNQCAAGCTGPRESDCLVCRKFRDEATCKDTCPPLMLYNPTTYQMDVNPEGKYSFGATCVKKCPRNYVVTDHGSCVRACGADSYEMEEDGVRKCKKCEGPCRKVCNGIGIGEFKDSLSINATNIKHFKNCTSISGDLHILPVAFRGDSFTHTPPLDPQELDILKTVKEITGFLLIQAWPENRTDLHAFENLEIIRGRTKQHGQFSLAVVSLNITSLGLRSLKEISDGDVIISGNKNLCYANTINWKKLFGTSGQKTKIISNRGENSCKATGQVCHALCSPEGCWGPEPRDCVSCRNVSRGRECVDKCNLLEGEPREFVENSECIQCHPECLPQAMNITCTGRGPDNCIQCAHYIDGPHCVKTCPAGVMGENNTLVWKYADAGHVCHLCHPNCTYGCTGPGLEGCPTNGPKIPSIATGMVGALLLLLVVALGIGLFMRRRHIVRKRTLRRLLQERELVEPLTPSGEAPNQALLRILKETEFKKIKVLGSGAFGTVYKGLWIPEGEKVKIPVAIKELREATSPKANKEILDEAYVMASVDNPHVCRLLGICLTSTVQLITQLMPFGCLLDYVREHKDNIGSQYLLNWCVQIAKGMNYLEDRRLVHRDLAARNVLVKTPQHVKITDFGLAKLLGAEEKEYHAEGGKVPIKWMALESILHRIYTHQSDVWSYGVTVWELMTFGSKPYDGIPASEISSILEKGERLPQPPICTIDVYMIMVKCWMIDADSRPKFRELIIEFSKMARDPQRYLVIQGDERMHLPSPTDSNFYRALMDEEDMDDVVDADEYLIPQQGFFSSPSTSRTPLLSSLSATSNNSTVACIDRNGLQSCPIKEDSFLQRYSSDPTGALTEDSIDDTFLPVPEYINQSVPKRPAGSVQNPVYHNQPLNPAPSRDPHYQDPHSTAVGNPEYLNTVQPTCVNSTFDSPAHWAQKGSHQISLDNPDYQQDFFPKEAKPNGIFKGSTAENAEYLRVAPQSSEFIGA

As usually defined, the IC50 is the concentration at which inhibition is half-maximal. For the compound `N#Cc1cnc2cc3cc(O)c(O)cc3cc2c1Nc1ccc(Cl)cc1Cl`, the concentration for half-maximal inhibition (IC50) at EGFR (human) [1] is 0.58 µg/mL (≈ 1.46 µM); against EGFR (human) [2], 0.85 µg/mL (≈ 2.15 µM); against EGFR (human) [3], 0.38 µg/mL (≈ 0.959 µM); at EGFR (human) [4], above 5 µg/mL.

Compound `COc1cc(Nc2c(C#N)cnc3cc4cc(OCCN5CCOCC5)c(OC)cc4cc23)c(Cl)cc1C` gave a half-inhibitory concentration (IC50) against EGFR (human) [5] of 9.95 µM.

With `COc1cc2cc3ncc(C#N)c(Nc4ccc(F)c(Cl)c4)c3cc2cc1OCCN1CCOCC1`, the half-maximal inhibitory concentration (IC50) at EGFR (human) [1] amounted to 0.76 µg/mL (≈ 1.5 µM); at EGFR (human) [3] it was 0.36 µg/mL (≈ 0.71 µM); at EGFR (human) [4], 0.04 µg/mL (≈ 0.0789 µM).

For `N#Cc1cnc2c(sc3ccc(N)cc32)c1Nc1cccc(Br)c1`, the IC50 against EGFR (human) [1], at EGFR (human) [2], against EGFR (human) [3] and on EGFR (human) [4] was above 5 µg/mL each time.

In the case of `N#Cc1cnc2c(sc3ccc([N+](=O)[O-])cc32)c1Nc1ccc(Cl)cc1Cl`, the 50% inhibitory concentration (IC50) is 0.41 µg/mL (≈ 0.987 µM) against EGFR (human) [1], 0.46 µg/mL (≈ 1.11 µM) at EGFR (human) [2], 0.67 µg/mL (≈ 1.61 µM) on EGFR (human) [3] and 0.59 µg/mL (≈ 1.42 µM) at EGFR (human) [4].

The inhibition is the drop in the measured response relative to a control, in per cent. Take `COc1cc(Nc2c(C#N)cnc3cc4nc[nH]c4cc23)cc(OC)c1OC`: the inhibition at EGFR (human) [5] came to 0%.

On EGFR (human) [5], `COc1cc(Nc2c(C#N)cnc3cc4cc(OCCN5CCN(C)CC5)c(OC)cc4cc23)c(C)cc1Cl` came in with a 50% inhibitory concentration (IC50) of 8.6 µM.

Turning to `C=CC(=O)Nc1ccc2sc3c(Nc4cccc(Br)c4)c(C#N)cnc3c2c1`, the half-inhibitory concentration (IC50) is 0.838 µg/mL (≈ 1.86 µM) at EGFR (human) [1], 1.69 µg/mL (≈ 3.76 µM) against EGFR (human) [2], 1 µg/mL (≈ 2.23 µM) against EGFR (human) [3] and 0.224 µg/mL (≈ 0.499 µM) against EGFR (human) [4].

Consider `COc1cc2cc3c(Nc4ccc(OCc5ccccc5)c(Cl)c4)c(C#N)cnc3cc2cc1OCCN1CCOCC1`, for which the IC50 on EGFR (human) [1] was 4.7 µg/mL (≈ 7.9 µM); against EGFR (human) [2], 33.5 µg/mL (≈ 56.3 µM); against EGFR (human) [3], 11.6 µg/mL (≈ 19.5 µM); at EGFR (human) [4] it was 3.5 µg/mL (≈ 5.88 µM).

Turning to `C=CC(=O)Nc1cccc2c1sc1c(Nc3cccc(Br)c3)c(C#N)cnc12`, the IC50 was 1.11 µg/mL (≈ 2.47 µM) on EGFR (human) [1], 3.9 µg/mL (≈ 8.68 µM) against EGFR (human) [2], above 5 µg/mL against EGFR (human) [3] and 1.09 µg/mL (≈ 2.43 µM) on EGFR (human) [4].

`COc1ccc(Cl)c(Nc2c(C#N)cnc3cc4nc[nH]c4cc23)c1` returned an inhibition on EGFR (human) [5] of 10%.

Regarding `CCOc1cc2cc3c(Nc4cc(OC)c(Cl)cc4C)c(C#N)cnc3cc2cc1OCCN1CCOCC1`, at EGFR (human) [5], the IC50 was above 10 µM.

Take `N#Cc1cnc2cc3nc[nH]c3cc2c1Nc1cccc(Br)c1`: the IC50 was 0.58 µg/mL (≈ 1.59 µM) against EGFR (human) [1], 3.48 µg/mL (≈ 9.56 µM) against EGFR (human) [2], 3.72 µg/mL (≈ 10.2 µM) at EGFR (human) [3] and 0.6 µg/mL (≈ 1.65 µM) against EGFR (human) [4].

Regarding `N#Cc1cnc2cc3nc[nH]c3cc2c1Nc1ccc(Cl)cc1Br`, the inhibition on EGFR (human) [5] was 25%.

In the case of `COc1cc(Nc2c(C#N)cnc3cc4nc[nH]c4cc23)c(Br)cc1Cl`, at EGFR (human) [5], the inhibition was 35%.

In the case of `N#Cc1cnc2cc3ccccc3cc2c1Nc1ccc(F)c(Cl)c1`, the IC50 on EGFR (human) [1] amounted to 0.332 µg/mL (≈ 0.955 µM); at EGFR (human) [2], 1.65 µg/mL (≈ 4.74 µM); at EGFR (human) [3], 1.08 µg/mL (≈ 3.11 µM); against EGFR (human) [4], 1.01 µg/mL (≈ 2.9 µM).

On to `COc1cc(Nc2c(C#N)cnc3cc4cc(OCCN5CCOCC5)c(OC)cc4cc23)c(C)cc1Cl`, for which, at EGFR (human) [5], the IC50 was above 10 µM.

For the compound `N#Cc1cnc2c(sc3ccccc32)c1Nc1cccc(Br)c1`, the half-inhibitory concentration (IC50) on EGFR (human) [1], against EGFR (human) [2], on EGFR (human) [3] and at EGFR (human) [4] was above 5 µg/mL each time.

Consider `N#Cc1cnc2c(oc3ccccc32)c1Nc1cccc(Br)c1`, for which the IC50 at EGFR (human) [1], against EGFR (human) [2], against EGFR (human) [3] and at EGFR (human) [4] was above 5 µg/mL each time.
